These results are taken from US10358446B2, “Bruton's tyrosine kinase inhibitors” (Zibo Biopolar Changsheng Pharmaceutical Co. Ltd., priority 2015, dated 2019).

This test concerns the target BTK (Homo sapiens (Human), UniProt Q06187). Put plainly: Btk kinase assay (HTRF). It is filed as biochemical. Particulars: [ATP]=80 μM, BTK=3.4 nM; read-out: BTK Inhibition. The protocol: Btk kinase activity was determined using a homogenous time resolved fluorescence (HTRF) methodology. Measurements were performed in a reaction volume of 15 μL using 384-well assay plates. Kinase enzyme, inhibitor, ATP and 1 μM peptide substrate were incubated in a reaction buffer compose of Hepes 50 mM (pH7.0), NaN3 0.02%, BSA 0.01%, Orthocanadate 0.1 mM. After one hour, the kinase reaction was quenched by the addition of […] antibody and XL-665 in 1× Detection buffer containing 60 mM EDTA (Cisbio), and the mixture was allowed to incubate for one hour. The HTRF signal was measured on a multimode plate reader (EnVision® Multilabel Reader, Perkin Elmer) with an excitation wavelength (λEx) of 330 nm and detection wavelengths (λEm) of 615 and 665 nrm. Activity was determined by the ratio of the fluorescence at 665 nm to that at 615 nm. For each compound, enzyme activity as measured at various concentrations of compound, Negative control reactions were performed in the absence of inhibitor in two replicates and eight no enzyme controls were used to determine baseline fluorescence levels. IC50s were obtained according to the equation: […] For BTK assay, [ATP]=80 μM, BTK=3.4 nM.

SMILES strings stand for the structures.

Chain of BTK (Q06187 whole entry, species assumed): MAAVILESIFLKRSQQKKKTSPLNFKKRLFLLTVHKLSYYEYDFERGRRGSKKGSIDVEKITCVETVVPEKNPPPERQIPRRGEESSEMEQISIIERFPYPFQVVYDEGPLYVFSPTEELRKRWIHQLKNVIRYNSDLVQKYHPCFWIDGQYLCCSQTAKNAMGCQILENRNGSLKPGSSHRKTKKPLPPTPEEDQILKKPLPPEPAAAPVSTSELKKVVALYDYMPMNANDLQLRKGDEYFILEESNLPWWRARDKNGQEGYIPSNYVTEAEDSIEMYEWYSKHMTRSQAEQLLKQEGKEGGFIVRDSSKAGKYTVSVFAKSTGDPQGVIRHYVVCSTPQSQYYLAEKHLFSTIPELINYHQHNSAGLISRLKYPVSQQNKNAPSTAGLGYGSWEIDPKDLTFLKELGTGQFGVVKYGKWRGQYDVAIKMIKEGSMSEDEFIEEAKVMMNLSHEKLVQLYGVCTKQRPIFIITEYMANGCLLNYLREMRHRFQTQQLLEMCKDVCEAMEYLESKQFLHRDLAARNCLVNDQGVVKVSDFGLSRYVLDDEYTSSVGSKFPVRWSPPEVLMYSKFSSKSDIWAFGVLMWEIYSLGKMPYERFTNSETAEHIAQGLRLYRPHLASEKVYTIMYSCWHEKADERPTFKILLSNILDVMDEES

`C=CC(=O)Nc1cccc(-n2c(=O)n(-c3cccc(OCc4ccccc4)c3)c3cnccc32)c1` [Example 233, N-(3-(3-(3-(benzyloxy)phenyl)-2-oxo-2,3-dihydro-1H-imidazo[4,5-c]pyridin-1-yl)phenyl)acrylamide]: the IC50 fell in the range of 10 to 100 nM.

Take `C=CC(=O)N1CC[C@@H](n2c(=O)n(-c3ccc(Oc4ccccc4C)cc3)c3cnccc32)C1` [Example 83, (R)-1-(1-acryloylpyrrolidin-3-yl)-3-(4-(o-tolyloxy)phenyl)-1H-imidazo[4,5-c]pyridin-2(3H)-one]: the IC50 lay within 10 to 100 nM. For `C=CC(=O)N1CC[C@@H](n2c(=O)n(-c3ccc(Oc4ccc(Cl)c(Cl)c4)c(Cl)c3)c3cnccc32)C1` [Example 44, (R)-1-(1-acryloylpyrrolidin-3-yl)-3-(3-chloro-4-(3,4-dichlorophenoxy)phenyl)-1H-imidazo[4,5-c]pyridin-2(3H)-one] the value was 10 to 100 nM; for `C=CC(=O)N1CCC(Cn2c(=O)n(-c3ccc(Oc4ccccc4)cc3)c3cnccc32)CC1` [Example 15, 1-((1-acryloylpiperidin-4-yl)methyl)-3-(4-phenoxyphenyl)-1H-imidazo[4,5-c]pyridin-2(3H)-one], 100 to 1000 nM; for `C=CC(=O)N1CCC(n2c(=O)n(-c3ccc(Oc4ccccc4)c(C)c3)c3cnccc32)C1` (stereo not drawn) [Example 91, 1-(1-acryloylpyrrolidin-3-yl)-3-(3-methy1-4-phenoxyphenyl)-1,3-dihydro-2H-imidazo[4,5-c]pyridin-2-one], 10 to 100 nM. Turning to `C=CC(=O)N1CC[C@@H](n2c(=O)n(-c3ccc(Oc4ccccc4)cc3)c3c(C#N)nccc32)C1` [Example 65], the IC50 was in the range of 1000 to 10000 nM. For `CC#CC(=O)N1CCC[C@@H]1Cn1c(=O)n(-c2ccc(Oc3cccc(OC)c3F)cc2)c2cncc(C)c21` [Example 169, (R)-1-((1-(but-2-ynoyl)pyrrolidin-2-yl)methyl)-3-(4-(2-fluoro-3-methoxyphenoxy)phenyl)-7-methyl-1H-imidazo[4,5-c]pyridin-2(3H)-one] the value was 100 to 1000 nM. Turning to `C=CC(=O)N1CC[C@@H](n2c(=O)n(-c3ccc(Oc4ccccc4)cc3)c3c(N)cccc32)C1` [Example 190, (R)-1-(1-acryloylpyrrolidin-3-yl)-4-amino-3-(4-phenoxyphenyl)-1H-benzo[d]imidazol-2(3H)-one], the IC50 was in the range of 100 to 1000 nM. With `CC#CC(=O)N1CCC[C@@H](n2c(=O)n(-c3ccc(Oc4cccc(OC)c4F)cc3)c3cnccc32)C1` [Example 175, (R)-1-(1-(but-2-ynoyl)piperidin-3-yl)-3-(4-(2-fluoro-3-methoxyphenoxy)phenyl)-1H-imidazo[4,5-c]pyridin-2(3H)-one] the figure was 100 to 1000 nM; with `C=CC(=O)N1CCC[C@@H](n2c(=O)n(-c3ccc(Oc4cccc(Cl)c4Cl)cc3)c3cnccc32)C1` [Example 100, (R)-1-(1-acryloylpiperidin-3-yl)-3-(4-(2,3-dichlorophenoxy)phenyl)-1,3-dihydro-2H-imidazo[4,5-c]pyridin-2-one], 10 to 100 nM. For `C=CC(=O)Nc1cccc(-n2c(=O)n(-c3ccc(Oc4cccc(C)c4)c(F)c3)c3cnccc32)c1` [Example 49, N-(3-(3-(3-fluoro-4-(m-tolyloxy)phenyl)-2-oxo-2,3-dihydro-1H-imidazo[4,5-c]pyridin-1-yl)phenyl)acrylamide] the value was 10 to 100 nM; for `C=CC(=O)Nc1cccc(-n2c(=O)n(-c3ccc(OCc4ccc(Cl)cc4)cc3)c3cnccc32)c1` [Example 221, N-(3-(3-(4-((4-chlorobenzyl)oxy)phenyl)-2-oxo-2,3-dihydro-1H-imidazo[4,5-c]pyridin-1-yl)phenyl)acrylamide], 10 to 100 nM. In the case of `C=CC(=O)Nc1cccc(-n2c(=O)n(-c3ccc(Oc4cccc(F)c4)c(F)c3)c3cnccc32)c1` [Example 90, N-(3-(3-(3-fluoro-4-(3-fluorophenoxy)phenyl)-2-oxo-2,3-dihydro-1H-imidazo[4,5-c]pyridin-1-yl)phenyl)acrylamide], the IC50 lay in the range of 10 to 100 nM. Take `C=CC(=O)Nc1cccc(-n2c(=O)n(-c3ccc(Oc4cccc(F)c4F)cc3)c3cnccc32)c1` [Example 125, N-(3-(3-(4-(2,3-difluorophenoxy)phenyl)-2-oxo-2,3-dihydro-1H-imidazo[4,5-c]pyridin-1-yl)phenyl)acrylamide]: the IC50 was in the range of 10 to 100 nM. As to `C=CC(=O)Nc1cccc(-n2c(=O)n(-c3ccc(Oc4cccc(OC)c4)c(F)c3)c3cnccc32)c1` [Example 94, N-(3-(3-(3-fluoro-4-(3-methoxyphenoxy)phenyl)-2-oxo-2,3-dihydro-1H-imidazo[4,5-c]pyridin-1-yl)phenyl)acrylamide], the IC50 lay in the range of 10 to 100 nM.

On to `C=CC(=O)Nc1cccc(-n2c(=O)n(-c3ccc(Oc4cccc(C(C)C)c4)cc3)c3cnccc32)c1` [Example 114, N-(3-(3-(4-(3-isopropylphenoxy)phenyl)-2-oxo-2,3-dihydro-1H-imidazo[4,5-c]pyridin-1-yl)phenyl)acrylamide], for which the IC50 lay within 10 to 100 nM. For `C=CC(=O)N1CC[C@@H](n2c(=O)n(-c3cccc(Oc4cccc(Cl)c4F)c3)c3cnccc32)C1` [Example 97, (R)-1-(1-acryloylpyrrolidin-3-yl)-3-(3-(3-chloro-2-fluorophenoxy)phenyl)-1,3-dihydro-2H-imidazo[4,5-c]pyridin-2-one] the value was 10 to 100 nM; for `C=CC(=O)Nc1cccc(-n2c(=O)n(-c3ccc(OCc4ccccc4F)c(Cl)c3)c3cnccc32)c1` [Example 235, N-(3-(3-(3-chloro-4-((2-fluorobenzyl)oxy)phenyl)-2-oxo-2,3-dihydro-1H-imidazo[4,5-c]pyridin-1-yl)phenyl)acrylamide], 10 to 100 nM. With `C=CC(=O)Nc1cccc(-n2c(=O)n(-c3ccc(Oc4ccc(C(F)(F)F)cc4)cc3)c3cnccc32)c1` [Example 123, N-(3-(2-oxo-3-(4-(4-(trifluoromethyl)phenoxy)phenyl)-2,3-dihydro-1H-imidazo[4,5-c]pyridin-1-yl)phenyl)acrylamide] the figure was no less than 10000 nM. On to `C=CC(=O)N1CC[C@@H](n2c(=O)n(-c3ccc(OCc4ccc(C(F)(F)F)cc4)c(Cl)c3)c3cnccc32)C1` [Example 205, (R)-1-(1-acryloylpyrrolidin-3-yl)-3-(3-chloro-4-((4-(trifluoromethyl)benzyl)oxy)phenyl)-1H-imidazo[4,5-c]pyridin-2(3H)-one], for which the IC50 is 100 to 1000 nM. With `C=CC(=O)N1CC[C@@H](n2c(=O)n(-c3cccc(Oc4ccc(C)cc4)c3)c3cnccc32)C1` [Example 16, (R)-1-(1-acryloylpyrrolidin-3-yl)-3-(3-(p-tolyloxy)phenyl)-1H-imidazo[4,5-c]pyridin-2(3H)-one] the figure was 10 to 100 nM; with `C=CC(=O)N1CC[C@@H](n2c(=O)n(-c3ccc(C(=O)NCc4cccc(OC)c4)cc3)c3cnccc32)C1` [Example 256, (R)-4-(1-(1-acryloylpyrrolidin-3-yl)-2-oxo-1H-imidazo[4,5-c]pyridin-3(2H)-yl)-N-(3-methoxybenzyl)benzamide], 1000 to 10000 nM. Consider `C=CC(=O)Nc1cccc(-n2c(=O)n(-c3ccc(Oc4cccc(Cl)c4Cl)cc3)c3cnccc32)c1` [Example 98, N-(3-(3-(4-(2,3-dichlorophenoxy)phenyl)-2-oxo-2,3-dihydro-1H-imidazo[4,5-c]pyridin-1-yl)phenyl)acrylamide], for which the IC50 is 10 to 100 nM. As for `C=CC(=O)Nc1cccc(-n2c(=O)n(-c3ccc(NC(=O)c4ccc(C(F)(F)F)cc4)cc3)c3cnccc32)c1` [Example 263, N-(4-(1-(3-acrylamidophenyl)-2-oxo-1,2-dihydro-3H-imidazo[4,5-c]pyridin-3-yl)phenyl)-4-(trifluoromethyl)benzamide], the IC50 lay in the range of 100 to 1000 nM. With `C=CC(=O)N1CC[C@@H](n2c(=O)n(-c3ccc(Oc4cccc(F)c4Cl)cc3)c3cnccc32)C1` [Example 102, (R)-1-(1-acryloylpyrrolidin-3-yl)-3-(4-(2-chloro-3-fluorophenoxy)phenyl)-1,3-dihydro-2H-imidazo[4,5-c]pyridin-2-one] the figure was 10 to 100 nM. Regarding `C=CC(=O)Nc1cccc(-n2c(=O)n(-c3cccc(Oc4cccc(Cl)c4F)c3)c3cnccc32)c1` [Example 96, N-(3-(3-(3-(3-chloro-2-fluorophenoxy)phenyl)-2-oxo-2,3-dihydro-1H-imidazo[4,5-c]pyridin-1-yl)phenyl)acrylamide], the IC50 lay within 10 to 100 nM. For `C=CC(=O)Nc1cccc(-n2c(=O)n(-c3ccc(OCc4ccccc4Cl)cc3)c3cnccc32)c1` [Example 231, N-(3-(3-(4-((2-chlorobenzyl)oxy)phenyl)-2-oxo-2,3-dihydro-1H-imidazo[4,5-c]pyridin-1-yl)phenyl)acrylamide] the value was 10 to 100 nM. With `C=CC(=O)N1CC[C@@H](n2c(=O)n(-c3ccc(-c4ccc(OC)cc4F)cc3)c3cnccc32)C1` [Example 274] the figure was 100 to 1000 nM; with `C=CC(=O)N1CCC[C@@H](n2c(=O)n(-c3ccc(Oc4cccc(F)c4F)cc3)c3cnccc32)C1` [Example 61, (R)-1-(1-acryloylpiperidin-3-yl)-3-(4-(2,3-difluorophenoxy)phenyl)-1H-imidazo[4,5-c]pyridin-2(3H)-one], 10 to 100 nM; with `C=CC(=O)N1CC[C@@H](n2c(=O)n(-c3ccc(OCc4ccccc4)c(F)c3)c3cnccc32)C1` [Example 237, (R)-1-(1-acryloylpyrrolidin-3-yl)-3-(4-(benzyloxy)-3-fluorophenyl)-1,3-dihydro-2H-imidazo[4,5-c]pyridin-2-one], 10 to 100 nM.
